In the NIST ThermoML archive (doi:10.1016/j.jct.2016.08.010):

Assay: molar heat capacity at constant pressure; xn = mol fraction of the nth substance listed
Settings: 100 kPa, Liquid, Small sample (50 mg) DSC

CCCCn1cc[n+](C)c1C.F[B-](F)(F)F [1-butyl-2,3-dimethylimidazolium tetrafluoroborate] + CCCCn1cc[n+](C)c1.F[B-](F)(F)F
molar heat capacity at constant pressure [J/K/mol]
Settings	293.15 K	298.15 K	303.15 K	308.15 K
x1 = 0.0944	372.33	374.56	376.3	378.14
x1 = 0.1139	374.5	376.61	378.27	379.93
x1 = 0.1685	380.51	382.42	383.87	385.43
x1 = 0.1964	383.54	385.39	386.73	388.21
x1 = 0.2219	386.3	388.04	389.27	390.78
x1 = 0.2761	391.8	393.45	394.59	396.01
x1 = 0.325	396.42	397.97	399.09	400.41
x1 = 0.3616	399.58	401.14	402.27	403.61
x1 = 0.4192	404.04	405.54	406.68	408.07
x1 = 0.4769	407.66	409.23	410.42	411.83
x1 = 0.5228	410.01	411.58	412.83	414.29
x1 = 0.5749	412.12	413.7	415.09	416.68
x1 = 0.6325	413.66	415.36	416.86	418.94
x1 = 0.6877	414.45	416.32	418.24	420.31
x1 = 0.7386	414.74	416.82	419.32	421.29
x1 = 0.7922	414.58	416.97	419.35	421.84
x1 = 0.8479	414.36	416.75	419.41	422.19
x1 = 0.8832	413.81	416.53	419.16	421.93
x1 = 1	413.03	416.01	418.84	421.7

CCCCn1cc[n+](C)c1C.F[B-](F)(F)F [1-butyl-2,3-dimethylimidazolium tetrafluoroborate] + CCn1cc[n+](C)c1.F[B-](F)(F)F
molar heat capacity at constant pressure [J/K/mol]
Settings	293.15 K	298.15 K	303.15 K	308.15 K
x1 = 0.1129	319.45	321.79	324.44	327.05
x1 = 0.1657	325.94	328.52	331.39	334.26
x1 = 0.2189	331.85	334.58	337.61	340.64
x1 = 0.2743	337.42	340.23	343.39	346.51
x1 = 0.3272	342.26	345.15	348.38	351.58
x1 = 0.3729	346.15	349.09	352.37	355.65
x1 = 0.4382	351.36	354.4	357.74	361.09
x1 = 0.4917	355.44	358.6	362.01	365.39
x1 = 0.5242	357.91	361.14	364.6	368.01
x1 = 0.5687	361.32	364.66	368.19	371.64
x1 = 0.6042	364.11	367.55	371.14	374.62
x1 = 0.6468	367.63	371.19	374.82	378.34
x1 = 0.6931	371.7	375.37	379.1	382.63
x1 = 0.7244	374.62	378.4	382.14	385.71
x1 = 0.785	380.94	384.83	388.57	392.14
x1 = 0.8149	384.44	388.32	392.05	395.57
x1 = 0.8633	390.63	394.43	398.1	401.56
x1 = 0.9107	397.48	401.14	404.65	407.96
x1 = 1	413.03	416.01	418.84	421.7

CCn1cc[n+](C)c1.F[B-](F)(F)F [1-ethyl-3-methylimidazolium tetrafluoroborate] + CCCCn1cc[n+](C)c1.F[B-](F)(F)F
molar heat capacity at constant pressure [J/K/mol]
Settings	293.15 K	298.15 K	303.15 K	308.15 K
x2 = 0	303.2	304.53	306.29	308.03
x2 = 0.0731	314.45	315.32	316.58	318.02
x2 = 0.1164	321.05	322.12	323.51	324.76
x2 = 0.1692	328.75	329.72	330.85	332.16
x2 = 0.2144	335.06	336	337.17	338.49
x2 = 0.2672	341.92	342.87	344.05	345.42
x2 = 0.3259	348.89	349.85	351.13	352.54
x2 = 0.3827	354.65	355.77	357.13	358.55
x2 = 0.4365	359.23	360.56	362.07	363.61
x2 = 0.4722	361.72	363.22	364.73	366.24
x2 = 0.535	365.27	367.01	368.62	370.2
x2 = 0.5968	367.7	369.31	370.93	372.58
x2 = 0.6379	368.54	370.31	371.89	373.53
x2 = 0.6857	369.02	370.78	372.53	374.23
x2 = 0.7446	369.21	371.07	372.68	374.41
x2 = 0.7732	368.94	370.9	372.67	374.4
x2 = 0.8293	368.08	370.08	371.76	373.59
x2 = 0.876	367.14	369.26	371.02	372.8
x2 = 0.9253	365.44	367.47	369.72	371.83
